Measured values: ChEMBL document CHEMBL4000229, “Structure-activity relationships of diverse xanthones against multidrug resistant human tumor cells” (Bioorg Med Chem Lett, 2017)

Tests used:
Type in all cases: functional, cell-based
A549 = test: Cytotoxicity against Taxol-resistant human A549 cells measured after 48 hrs by MTT assay; conditions: A549, 48 h
NCI/ADR-RES = test: Cytotoxicity against human MCF7/ADR cells measured after 48 hrs by MTT assay
SMMC-7721 = test: Cytotoxicity against Taxol-resistant human SMMC7721 cells measured after 48 hrs by MTT assay; conditions: SMMC-7721, 48 h

SMILES | IC50 (A549) [µM] | IC50 (NCI/ADR-RES) [µM] | IC50 (SMMC-7721) [µM]
COc1cc(O)c2c(=O)c3cc(O)ccc3oc2c1 | 104 | 31.8 | 87.4
COc1cc(O)c2c(=O)c3cc(O)ccc3oc2c1OC | 62.3 | 57.3 | 63
COc1ccc2oc3ccc(O)cc3c(=O)c2c1OC | 178 | 53.5 | 81.8
COc1c(O)ccc2oc3ccc(O)cc3c(=O)c12 | 37.1 | 109 | 56.3
COc1cc2c(=O)c3c(O)c(OC)c(O)cc3oc2cc1O | > 200 | > 200 | 102
COc1c(O)cc(OC)c2c(=O)c3c(O)cccc3oc12 | 25.6 | 30.4 | 14.7
COc1c(O)cc2oc3cccc(O)c3c(=O)c2c1O | > 200 | > 200 | 43.8
COc1c(O)cc2oc3ccc(O)cc3c(=O)c2c1O | 167 | > 200 | 48.9
COc1cc(OC)c2c(=O)c3c(O)cccc3oc2c1OC | 34.6 | 59.1 | 50.9
COc1ccc(O)c2c(=O)c3cc(O)ccc3oc12 | 38.9 | 185 | 15.1
COc1ccc2oc3ccc(O)c(OC)c3c(=O)c2c1 | 35.2 | 102 | 83.7
O=c1c2cc(O)ccc2oc2cccc(O)c12 | > 200 | > 200 | 60.4
O=c1c2cc(O)ccc2oc2cc(O)cc(O)c12 | 146 | 193 | 38.5
